Tests used:
Type in all cases: in vivo
[1] = tested on: heat stressed transition dairy cattle; test: Example 2: feeding sorbitol to heat stressed transition dairy cattle (about 150 g/d prior to calving, about 125 g/d after), with and without evaporative cooling
Text: In this example, the dairy cattle were blocked in the same manner as Example 1. During the study, the ambient temperature was between 70 degrees and 85 degrees during 62 percent of study and was greater than 85 degrees during 18 percent of the study.
After 30 days in milk, all postfresh cows were fed a common diet until 60 days post partum. The nutrient analysis of the total mixed rations for the control and sorbitol diets provided during the study are shown in Table 5C:
As provided in FIGS. 5A and 5B, sorbitol was provided in a base mix at a rate of 1.5 pounds per day for prefresh dairy cattle (e.g., for 28 days prior to calving) and at a rate of 1.25 pounds per day for post fresh dairy cattle (e.g., for 30 days post-calving).
From day 30 to day 60, all dairy cattle study groups received the same diet free of sorbitol (see Table 5).

[2] = tested on: dairy cattle in mid-lactation; test: Example 3: feeding sorbitol at about 100 grams per day to dairy cattle in mid-lactation, with and without misters; conditions: for 3.5% FCM / Body Weight / Daily Milk Yield / Dry Matter Intake / ECM / Milk Fat / Milk Protein: about 100 g/day
Text: 64 dairy cattle were separated into four pens of 16 dairy cattle each pen was provided one of the four treatments described above in connection with Example 1. The treatment groups receiving sorbitol in the diet were provided 1 pound of premix per day during a ten week testing period. During the study, the temperature was between 70 degrees and 85 degrees during […] of study and was greater than 85 degrees during 25 percent of the study. […] [table] [table]

[3] = tested on: heat stressed lactating dairy cattle in a post-peak phase of lactation; test: Example 1: feeding about 100 grams of sorbitol per day to heat stressed lactating dairy cattle in post-peak phase, with and without evaporative cooling
Text: In the Examples below, statistical analysis was completed for parameters studied such as milk yield, energy corrected milk (ECM), fat corrected milk (FCM), and dry matter intake. A P value of 0.10 means that 10 times out of 100 the results can be explained by factors other than the feeding of sorbitol versus the lack of sorbitol feeding. Likewise, a P value of 0.75 means that 75 times out of 100, the difference in value between the control group and the sorbitol-fed group may be explained by factors other than the feeding of the increased rate(s) of supplemental feed versus the lower rate of feeding of the supplemental feed (e.g., 4 pounds per head per day). For purposes of comparing data in this document, P values of 0.15, or lower, are considered statistically significant. Thus, where a P value of 0.15 or less is returned for particular results, it is assumed that the differing results may be explained by the test regimen, i.e.: the feeding of the increased rate(s) of supplemental feed versus the lower rate of feeding of the supplemental feed (e.g., 4 pounds per head per day). […] In this example, 32 multiparous cows were blocked by production and days in milk into one of two diets, a control diet without sorbitol and a diet with sorbitol, and each treatment group was divided into two cooling treatments. The four treatment groups included 1) a control diet with fans and no mist; 2) a sorbitol-supplemented diet with fans and no mist; 3) a control diet with fans and mist; and 4) a sorbitol-supplemented diet with fans and mist. During the study, the ambient temperature was between 70 degrees and 85 degrees during 51 percent of study and was greater than 85 degrees during 13 percent of the study. Heat stress in the dairy cattle was observed through changes in performance as well as increased respiration rates. Dairy cattle performance and respiration rates for the dairy cattle not receiving mister cooling is compared to dairy cattle receiving mist treatment in Table 1. The sorbitol in the sorbitol-supplemented diets was processed as an extruded pellet and added to other grain concentrates prior to final addition and delivery to the ruminant. [table] [table]

[4] = day 0 to 30 postpartum, Misters
[5] = day 0 to 30 postpartum, No Misters
[6] = day 0 to 60 postpartum (sorbitol-free common diet from day 30), Misters
[7] = day 0 to 60 postpartum (sorbitol-free common diet from day 30), No Misters
[8] = sorbitol without mister treatment
[9] = about 100 g sorbitol/day, post-peak, pooled across cooling strategies and day

OC[C@@H](O)[C@@H](O)[C@H](O)[C@@H](O)CO [Sorbitol, sorbitol]
Body Weight, post [1, 4]: 1259 lbs | DMI as % BW [1, 4]: 3.05% | Daily Milk Yield [1, 4]: 78.7 lbs/d | Dry Matter Intake [1, 4]: 37.8 lbs/d | ECM [1, 4]: 80.2 lbs/d | FCM [1, 4]: 80.7 lbs/d | Milk Fat [1, 4]: 3.53% | Milk Protein [1, 4]: 2.81% | Milk-to-Feed Ratio [1, 4]: 2.08 | Body Weight, post [1, 5]: 1232 lbs | DMI as % BW [1, 5]: 3.03% | Daily Milk Yield [1, 5]: 74.4 lbs/d | Dry Matter Intake [1, 5]: 36.8 lbs/d | ECM [1, 5]: 75.2 lbs/d | FCM [1, 5]: 75.5 lbs/d | Milk Fat [1, 5]: 3.42% | Milk Protein [1, 5]: 2.81% | Milk-to-Feed Ratio [1, 5]: 2.05 | increase in milk yield compared to the control group without mister treatment ([1]; day 0 to 30 postpartum, sorbitol and mister treatment): about 11.5 pounds per day | increase in milk yield compared to the control group without mister treatment ([1]; day 0 to 30 postpartum, sorbitol without mister treatment): about 7.2 pounds per day | Body Weight, post [1, 6]: 1261 lbs | DMI as % BW [1, 6]: 3.45% | Daily Milk Yield [1, 6]: 84.3 lbs/d | Dry Matter Intake [1, 6]: 42.9 lbs/d | ECM [1, 6]: 79.8 lbs/d | FCM [1, 6]: 80.4 lbs/d | Milk - to - Feed [1, 6]: 2.00 | Milk Fat [1, 6]: 3.17% | Milk Protein [1, 6]: 2.66% | Milk - to - Feed ([1]; day 0 to 60 postpartum (sorbitol-free common diet from day 30), Misters, listed as sorbitol): 2.0 | Body Weight, post [1, 7]: 1231 lbs | DMI as % BW [1, 7]: 3.32% | Daily Milk Yield [1, 7]: 81.2 lbs/d | Dry Matter Intake [1, 7]: 41.1 lbs/d | ECM [1, 7]: 77.3 lbs/d | FCM [1, 7]: 77.7 lbs/d | Milk - to - Feed [1, 7]: 1.97 | Milk Fat [1, 7]: 3.12% | Milk Protein [1, 7]: 2.66% | increase in milk yield compared to the control group without mister treatment ([1]; day 0 to 60 postpartum, sorbitol and mister treatment): about 11.3 pounds per day | increase in milk yield compared to the control group without mister treatment ([1]; day 0 to 60 postpartum, sorbitol without mister treatment): about 8.2 pounds per day | beta hydroxy butyrate (BHBA) levels (FIG. 4) ([1]; transition phase, sorbitol groups vs control without misters): control group without mister treatment experienced a spike in BHBA levels compared to the sorbitol groups | 3.5% FCM ([2]; Misters): 66.7 lbs/d | Body Weight ([2]; Misters): 1373 lbs | Daily Milk Yield ([2]; Misters): 73.7 lbs/d | Dry Matter Intake ([2]; Misters): 49.4 lbs/d | ECM ([2]; Misters): 68.1 lbs/d | Milk Fat ([2]; Misters): 2.92% | Milk Protein ([2]; Misters): 2.92% | 3.5% FCM ([2]; No Misters): 66.0 lbs/d | Body Weight ([2]; No Misters): 1393 lbs | Daily Milk Yield ([2]; No Misters): 71.9 lbs/d | Dry Matter Intake ([2]; No Misters): 51.2 lbs/d | ECM ([2]; No Misters): 67.3 lbs/d | Milk Fat ([2]; No Misters): 3.03% | Milk Protein ([2]; No Misters): 2.92% | increase in milk yield compared to the control group without mister treatment ([2]; sorbitol and mister treatment): about 3.5 pounds per day | increase in milk yield compared to the control group without mister treatment [2, 8]: about 1.7 pounds per day | DMI [3, 9]: 24.7 kg/day | Daily Milk [3, 9]: 39.4 kg/day | ECM [3, 9]: 37.2 kg/day | FCM [3, 9]: 36.8 kg/day | Fat [3, 9]: 1.23 kg/day | Fat, % [3, 9]: 3.16% | Milk to Feed [3, 9]: 1.60 | Protein [3, 9]: 1.12 kg/day | Protein, % [3, 9]: 2.87% | Respiration rates [3, 9]: 63.0 | performance: daily milk, ECM, FCM (FIG. 1) ([3]; sorbitol and mister treatment): best overall performance in comparison to all other groups studied | milk-to-feed ratio (FIG. 3) ([3]; sorbitol group with mister treatment): 1.64 kg of milk for every kg of dry matter consumed | milk-to-feed ratio (FIG. 3) ([3]; sorbitol group without mister treatment): 1.55 kg of milk for every kg of dry matter consumed | difference in ECM ([3]; sorbitol group without mister treatment vs control group with misters): 0.3 kg/day | FCM results vs control ([3]; sorbitol with and without mister treatment): performed better than the control group with mister treatment and significantly better than the control group without mister treatment | variation of dry matter intake between the two sorbitol groups ([3]; sorbitol with vs without misters): 0.4 kg/day | ECM results vs control [3, 8]: performed significantly better than the control group without sorbitol and mister treatment | performance: daily milk, ECM, FCM (FIG. 1) [3, 8]: performed better than the control group without misters in all performance areas | daily dry matter intake (FIG. 2) ([3]; the other groups (both sorbitol groups and control without misters) vs 28 for control with misters): 25 kg/day
